Assay results: US8772322B2, “Synergistic preservative compositions” (ISP Investments Inc., priority 2010, dated 2014)

Columns and labels:
Assay type in all cases: cell-based
[1] = system: Pseudomonas aeruginosa (ATCC 9027); experiment: MIC / growth test of aqueous biocide mixtures, same protocol as Example 1, with synergy index; on growth: key: growth of the microorganism took place (symbol '+'); or not (symbol '−')
Experimental: (§1) Synergy is determined from combination studies of the different actives according to the method of calculation put forward by F. C. Kull et al, Applied Microbiology, 9:538 (1961): Synergy Index (SI)=Qa/QA+Qb/QB
(§2) Where • Qa=concentration of component A in the biocide composition showing the desired effect (e.g. no growth of microorganisms) • QA=concentration of component A as single component showing the desired effect • Qb=concentration of component B in the biocide composition showing the desired effect and • QB=concentration of component B as single component showing the desired effect
(§3) For a system consisting of three active components the synergy index is calculated by the formula: Synergy Index (SI)=Qa/QA+Qb/QB+Qc/QC
(§4) Synergy in a composition then exists when the synergy index is less than 1.
(§5) In this example synergy is shown against the microorganism Staphylococcus aureus (ATCC 6538). For this purpose MIC values were determined for each individual active as well as for different combinations of the 3 actives. MIC (Minimum Inhibitory Concentration) defines the lowest concentration level of a substance to inhibit the growth of a given organism.
(§6) The cell density of S. aureus was 10*5 cells/ml. The incubation time was 24 hr at 32° C.
(§7) TSB (Tryptic Soy […]) was used as nutrient medium.
In this example synergy is shown against the microorganism Pseudomonas aeruginosa (ATCC 9027).
(§8) The test protocol is the same as described under Example 1.
In Table 4 the synergy index has been calculated.

[2] = system: Staphylococcus aureus (ATCC 6538); experiment: MIC / growth test of aqueous biocide mixtures in TSB, 24 hr at 32° C., with synergy index (Kull); on growth: key: growth of the microorganism took place (symbol '+'); or not (symbol '−')
Experimental: as §1, §2, §3, §4, §5
Subsequently the activity of these mixtures were tested against Staphylococcus aureus.
as §6, §7
In this way the table represents the MIC value for each tested combination.

[3] = system: Escherichia coli (ATCC 8793); experiment: MIC / growth test of aqueous biocide mixtures, same protocol as Example 1, with synergy index; on growth: key: growth of the microorganism took place (symbol '+'); or not (symbol '−')
Experimental: as §1, §2, §3, §4, §5, §6, §7
In this example synergy is shown against the microorganism Escherichia coli (ATCC 8793).
as §8
In Table 6 the synergy index has been calculated.

[4] = in combination with IPBC 3.9 + CMIT/MIT 0.75 ppm
[5] = in combination with IPBC 7.8 + CMIT/MIT 0.75 ppm
[6] = in combination with IPBC 15.6 + CMIT/MIT 0.75 ppm
[7] = in combination with IPBC 31.2 + CMIT/MIT 0.75 ppm
[8] = single active, incubation time 24 hours

Question: Which results are given for `O=c1[nH]sc2ccccc12` [BIT, 1,2-Benzisothiazolin-3-one]?
Answer: growth ([1]; BIT 6.25 ppm, single active): +; growth ([1]; BIT 12.5 ppm, single active): +; growth ([1]; BIT 25 ppm, single active): +; growth ([1]; BIT 50 ppm, single active): −; growth ([1]; BIT 100 ppm, single active): −; growth ([1]; BIT 200 ppm, single active): −; MIC BIT con. Qb [1, 4]: 12.5 ppm; MIC BIT con. Qb [1, 5]: 12.5 ppm; MIC BIT con. Qb [1, 6]: 12.5 ppm; MIC BIT con. Qb [1, 7]: 12.5 ppm; MIC BIT con. Qb ([1]; in combination with IPBC 62.5 + CMIT/MIT 0.75 ppm): 6.25 ppm; MIC BIT con. Qb ([1]; in combination with IPBC 125 + CMIT/MIT 0.75 ppm): 6.25 ppm; MIC BIT con. Qb ([1]; in combination with IPBC 125 ppm, CMIT/MIT 0): 25 ppm; MIC as single component (QA, QB, QC) [1, 8]: 50 ppm; growth ([2]; BIT 0.01 ppm, IPBC 0, without CMIT/MIT): +; growth ([2]; BIT 0.03 ppm, IPBC 0, without CMIT/MIT): +; growth ([2]; BIT 0.05 ppm, IPBC 0, without CMIT/MIT): +; growth ([2]; BIT 0.1 ppm, IPBC 0, without CMIT/MIT): +; growth ([2]; BIT 0.19 ppm, IPBC 0, without CMIT/MIT): +; growth ([2]; BIT 0.39 ppm, IPBC 0, without CMIT/MIT): +; growth ([2]; BIT 0.78 ppm, IPBC 0, without CMIT/MIT): +; growth ([2]; BIT 1.56 ppm, IPBC 0, without CMIT/MIT): +; growth ([2]; BIT 3.12 ppm, IPBC 0, without CMIT/MIT): −; growth ([2]; BIT 3.12 ppm, single active): +; growth ([2]; BIT 6.25 ppm, IPBC 0, without CMIT/MIT): −; growth ([2]; BIT 6.25 ppm, single active): −; growth ([2]; BIT 12.5 ppm, IPBC 0, without CMIT/MIT): −; growth ([2]; BIT 12.5 ppm, single active): −; growth ([2]; BIT 25 ppm, single active): −; growth ([2]; BIT 50 ppm, single active): −; growth ([2]; BIT 100 ppm, single active): −; MIC BIT con. Qb ([2]; in combination with IPBC 0.49 + CMIT/MIT 1.5 ppm): 0.78 ppm; MIC BIT con. Qb ([2]; in combination with IPBC 0.98 + CMIT/MIT 1.5 ppm): 0.78 ppm; MIC BIT con. Qb ([2]; in combination with IPBC 1.95 + CMIT/MIT 0.37 ppm): 1.56 ppm; MIC BIT con. Qb ([2]; in combination with IPBC 1.95 + CMIT/MIT 1.5 ppm): 0.78 ppm; MIC BIT con. Qb ([2]; in combination with IPBC 3.9 + CMIT/MIT 0.37 ppm): 1.56 ppm; MIC BIT con. Qb ([2]; in combination with IPBC 3.9 + CMIT/MIT 1.5 ppm): 0.39 ppm; MIC BIT con. Qb ([2]; in combination with IPBC 3.9 ppm, CMIT/MIT 0): 1.56 ppm; MIC BIT con. Qb ([2]; in combination with IPBC 7.8 + CMIT/MIT 0.37 ppm): 1.56 ppm; MIC BIT con. Qb ([2]; in combination with IPBC 7.8 + CMIT/MIT 1.5 ppm): 0.01 ppm; MIC BIT con. Qb ([2]; in combination with IPBC 7.8 ppm, CMIT/MIT 0): 0.78 ppm; MIC as single component (QA, QB, Qc) [2, 8]: 6.25 ppm; growth ([3]; BIT 1.56 ppm, single active): +; growth ([3]; BIT 3.12 ppm, single active): +; growth ([3]; BIT 6.25 ppm, single active): −; growth ([3]; BIT 12.5 ppm, single active): −; growth ([3]; BIT 25 ppm, single active): −; growth ([3]; BIT 50 ppm, single active): −; growth ([3]; BIT 100 ppm, single active): −; MIC BIT con. Qb ([3]; in combination with IPBC 0.98 + CMIT/MIT 0.75 ppm): 3.12 ppm; MIC BIT con. Qb ([3]; in combination with IPBC 1.95 + CMIT/MIT 0.75 ppm): 3.12 ppm; MIC BIT con. Qb ([3]; in combination with IPBC 3.9 + CMIT/MIT 0.19 ppm): 3.12 ppm; MIC BIT con. Qb [3, 4]: 3.12 ppm; MIC BIT con. Qb ([3]; in combination with IPBC 7.8 + CMIT/MIT 0.19 ppm): 3.12 ppm; MIC BIT con. Qb [3, 5]: 3.12 ppm; MIC BIT con. Qb ([3]; in combination with IPBC 15.6 + CMIT/MIT 0.19 ppm): 3.12 ppm; MIC BIT con. Qb [3, 6]: 3.12 ppm; MIC BIT con. Qb ([3]; in combination with IPBC 31.2 + CMIT/MIT 0.19 ppm): 3.12 ppm; MIC BIT con. Qb [3, 7]: 0.78 ppm; MIC BIT con. Qb ([3]; in combination with IPBC 62.5 + CMIT/MIT 0.19 ppm): 1.56 ppm; MIC BIT con. Qb ([3]; in combination with IPBC 62.5 ppm, CMIT/MIT 0): 3.12 ppm; MIC as single component (QA, QB, QC) [3, 8]: 6.25 ppm
